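GI50 = concentration required for 50% inhibition of growth. TGI is the concentration that stops growth completely.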
Legend:
Test in all cases: inhibition of tumour cell growth, NCI panel, 384-well format
[1] = system: SN12C renal
[2] = system: SK-MEL-28 melanoma
[3] = system: MDA-MB-231 breast
[4] = system: SK-MEL-2 melanoma
[5] = system: MDA-MB-468 breast
[6] = system: A549 NSCLC
[7] = system: SK-OV-3 ovarian
[8] = system: CAKI-1 renal
[9] = system: SNB-19 CNS
[10] = system: SW-620 colon
[11] = system: M14 melanoma
[12] = system: HT29 colon
[13] = system: OVCAR-4 ovarian
[14] = system: NCI-H322M lung
[15] = system: DU-145 prostate
[16] = system: UO-31 renal
[17] = system: EKVX NSCLC
[18] = system: MDA-MB-435 melanoma
[19] = system: A498 renal
[20] = system: HCC-2998 colon
[21] = system: HCT-116 colon
[22] = system: OVCAR-8 ovarian
[23] = system: SF-295 CNS
[24] = system: HCT-15 colon

C1=C/COCc2cc(ccc2OCCN2CCCC2)Nc2nccc(n2)-c2cccc(c2)COC/1
GI50 [1]: 704 nM | TGI [1]: 2010 nM | GI50 [2]: 1190 nM | TGI [2]: 2440 nM | GI50 [3]: 1190 nM | TGI [3]: 2920 nM | GI50 [4]: 625 nM | TGI [4]: 1790 nM | GI50 [5]: 1660 nM | TGI [5]: 3030 nM | GI50 [6]: 1460 nM | TGI [6]: 3490 nM | GI50 [7]: 888 nM | TGI [7]: 2350 nM | GI50 [8]: 428 nM | TGI [8]: 1710 nM | GI50 [9]: 2330 nM | TGI [9]: 6910 nM | GI50 [10]: 1520 nM | TGI [10]: 3400 nM | GI50 [11]: 1160 nM | TGI [11]: 2390 nM | GI50 [12]: 1340 nM | TGI [12]: 2670 nM | GI50 [13]: 1760 nM | TGI [13]: 3610 nM | GI50 [14]: 1010 nM | TGI [14]: 2470 nM | GI50 [15]: 1060 nM | TGI [15]: 3430 nM | GI50 [16]: 1470 nM | TGI [16]: 3190 nM | GI50 [17]: 1560 nM | TGI [17]: 3370 nM | GI50 [18]: 1320 nM | TGI [18]: 2730 nM | GI50 [19]: 829 nM | TGI [19]: 2850 nM | GI50 [20]: 1350 nM | TGI [20]: 2720 nM | GI50 [21]: 692 nM | TGI [21]: 2360 nM | GI50 [22]: 1290 nM | TGI [22]: 2670 nM | GI50 [23]: 1810 nM | TGI [23]: 3310 nM | GI50 [24]: 802 nM

From PubChem BioAssay (NCI)
